Biological target: T1, GPR40 of human origin (Homo sapiens, UniProt O14842)
T1 construct: expressed in transfected cells
Assay: Agonist action on GPR40 of human origin (intracellular Ca2+ change)
Type: cell-based
Details: CHO cell strain stably expressing GPR40 of human origin; change in Ca2+ concentration, fluorescent calcium indicator
Method in brief: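 CHO cells stably expressing human GPR40, cultured overnight, then loaded 1 h with Calcium 4 dye plus probenecid in HEPES-buffered HBSS. Compound added in 20 mM HEPES-HBSS; intracellular Ca2+ change read by fluorescence, EC50 from dose-response of fluorescence change.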

T1 sequence (O14842 whole entry): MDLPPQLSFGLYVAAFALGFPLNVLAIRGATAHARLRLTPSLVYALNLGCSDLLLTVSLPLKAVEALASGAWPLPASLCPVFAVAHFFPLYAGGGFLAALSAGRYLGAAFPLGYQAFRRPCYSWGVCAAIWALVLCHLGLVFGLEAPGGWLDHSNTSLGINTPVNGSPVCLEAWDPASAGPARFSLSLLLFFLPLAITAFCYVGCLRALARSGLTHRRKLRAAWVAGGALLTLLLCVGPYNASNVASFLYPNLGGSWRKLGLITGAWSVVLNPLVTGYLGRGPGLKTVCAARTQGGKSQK

| EC50 [µM] | Structure (SMILES) |
| --- | --- |
| < 0.3 | COc1ccc(-c2cccc3c2CC[C@H]3Oc2ccc(-c3cc(O)n[s+]3[O-])cc2)c(C)c1 (stereo partly drawn) [Example 40, 5-(4-(((R)-4-(4-methoxy-2-methylphenyl)-2,3-dihydro-1H-inden-1-yl)oxy)phenyl)-3-hydroxyisothiazole 1-oxide] |
| 0.3 to 3 | CCOc1ccc(-c2cccc3c2CC[C@H]3Oc2ccc(-c3cc(O)n[s+]3[O-])cc2)cc1 (stereo partly drawn) [Example 7, 5-(4-(((R)-4-(4-ethoxyphenyl)-2,3-dihydro-1H-inden-1-yl)oxy)phenyl)-3-hydroxyisothiazole 1-oxide] |

Source: patent publication US8629102B2, “3-hydroxyisothiazole 1-oxide derivatives” (Mochida Pharmaceutical Co., Ltd., priority 2011, dated 2014)
